ChEMBL document CHEMBL1201862, “PubChem BioAssay data set” (2004)
The source made the active and inactive calls.

Tests used:
Streptococcus = assay: Group A Streptococcus viability loss, dose response, counter-screen for streptokinase expression inhibitor project, luminescence, BacTiterGlo (AID 1915); type: functional, organism-based;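 further: potency for reduction of bacterial viability or growth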
HeLa = assay: HeLa cell cytotoxicity, dose response, cytotoxicity control, ATP luminescence, cherry-pick samples (AID 687004); type: functional, cell-based; conditions: Homo sapiens
[1] = system: Streptococcus sp. 'group A'; assay: growth inhibition of control SK(-) GAS strain, dose response, counter-screen for streptokinase expression inhibitor project, luminescence, kanamycin, BacTiterGlo, confirmation (AID 1900); type: functional, organism-based
Cryptococcus neoformans [2] = assay: Cryptococcus growth inhibition by alamar blue – cell lysis, cherry-picks, replicate tests, mechanism study for C. neoformans antifungal project, dose response (AID 686999); type: functional, organism-based
Cryptococcus neoformans [3] = assay: PubChem AID 686997; type: functional, organism-based
Streptokinase A = target: T1, Streptokinase A (Streptococcus pyogenes serotype M1, UniProt P10520); assay: S. pyogenes streptokinase expression inhibitors, potency, dose response, plasminogen activation absorbance, OD405 (AID 1914); type: functional, Streptococcus pyogenes M1 GAS;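 further: secreted streptokinase activity via plasminogen activation per viability signal from cell pellet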
T1 sequence (P10520 whole entry): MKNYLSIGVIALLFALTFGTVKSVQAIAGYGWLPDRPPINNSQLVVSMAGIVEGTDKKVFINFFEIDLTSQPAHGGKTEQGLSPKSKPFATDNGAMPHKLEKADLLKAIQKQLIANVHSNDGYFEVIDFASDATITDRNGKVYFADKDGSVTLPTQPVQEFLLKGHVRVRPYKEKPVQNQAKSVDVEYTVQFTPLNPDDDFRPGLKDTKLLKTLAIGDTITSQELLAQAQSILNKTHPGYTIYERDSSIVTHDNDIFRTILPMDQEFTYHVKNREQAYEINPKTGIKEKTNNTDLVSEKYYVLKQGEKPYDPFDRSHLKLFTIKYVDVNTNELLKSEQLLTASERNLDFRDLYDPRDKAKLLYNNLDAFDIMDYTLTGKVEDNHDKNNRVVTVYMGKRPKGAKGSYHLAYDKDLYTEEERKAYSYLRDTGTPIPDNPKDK

[4] = HEK293 cell cytotoxicity, dose response, cytotoxicity control, ATP luminescence, dry powder, set 3 (AID 743131); type: functional, cell-based
[5] = target: E3 ubiquitin-protein ligase XIAP (Homo sapiens, UniProt P98170); assay: Counter Screen using XIAP-Bir3 for Chemical Antagonists of Bir1/2 domains of IAP-family anti-apoptotic proteins. [Related pubchem assays (depositor defined):AID1018, AID1449, AID1514, AID1638, AID1749, AID1750, AID488957, AID488963]
E3 ubiquitin-protein ligase XIAP, sequence (P98170 whole entry, the tested form may be a part): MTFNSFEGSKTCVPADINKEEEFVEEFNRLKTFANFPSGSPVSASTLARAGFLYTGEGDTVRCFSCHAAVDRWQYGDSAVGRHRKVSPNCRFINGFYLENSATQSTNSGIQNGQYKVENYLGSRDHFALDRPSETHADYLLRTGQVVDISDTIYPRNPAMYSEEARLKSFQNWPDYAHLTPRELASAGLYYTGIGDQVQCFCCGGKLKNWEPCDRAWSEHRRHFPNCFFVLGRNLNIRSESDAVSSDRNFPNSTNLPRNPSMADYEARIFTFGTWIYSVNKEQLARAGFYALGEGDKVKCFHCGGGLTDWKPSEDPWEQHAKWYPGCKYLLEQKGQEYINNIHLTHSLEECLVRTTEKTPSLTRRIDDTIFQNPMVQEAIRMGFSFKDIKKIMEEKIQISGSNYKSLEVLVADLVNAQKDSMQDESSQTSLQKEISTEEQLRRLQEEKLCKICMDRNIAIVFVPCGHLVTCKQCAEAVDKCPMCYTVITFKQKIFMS

Fibrinogen beta chain [6] = target: T2, Fibrinogen beta chain (Homo sapiens, UniProt P02675); assay: Fluorescence polarization-based biochemical high throughput dose response assay to identify inhibitors that disrupt the binding of a cyclic peptide (Tn6) to the fibrin proteolytic product D-Dimer and fragment E complex [DD(E )].
T2 sequence (P02675 whole entry, the tested form may be a part): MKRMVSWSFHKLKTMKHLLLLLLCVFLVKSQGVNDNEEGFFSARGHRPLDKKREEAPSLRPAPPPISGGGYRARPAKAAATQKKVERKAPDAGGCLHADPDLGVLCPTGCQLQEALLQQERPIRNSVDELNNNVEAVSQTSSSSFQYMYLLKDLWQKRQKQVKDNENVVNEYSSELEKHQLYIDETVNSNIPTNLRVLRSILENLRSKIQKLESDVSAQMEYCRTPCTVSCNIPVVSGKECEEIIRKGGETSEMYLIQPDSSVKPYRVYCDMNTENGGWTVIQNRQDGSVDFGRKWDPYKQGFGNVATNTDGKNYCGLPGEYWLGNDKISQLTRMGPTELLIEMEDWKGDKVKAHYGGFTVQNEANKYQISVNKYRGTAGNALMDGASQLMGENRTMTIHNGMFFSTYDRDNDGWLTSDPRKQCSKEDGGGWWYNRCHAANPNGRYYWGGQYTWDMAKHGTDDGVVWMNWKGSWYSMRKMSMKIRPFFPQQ

[7] = target: T3, Tyrosyl-DNA phosphodiesterase 2 (Homo sapiens, UniProt O95551); assay: human TDP2 enzyme inhibitors, dose response, biochemical, epi absorbance, IC50 (AID 743297)
T3 sequence (O95551 whole entry): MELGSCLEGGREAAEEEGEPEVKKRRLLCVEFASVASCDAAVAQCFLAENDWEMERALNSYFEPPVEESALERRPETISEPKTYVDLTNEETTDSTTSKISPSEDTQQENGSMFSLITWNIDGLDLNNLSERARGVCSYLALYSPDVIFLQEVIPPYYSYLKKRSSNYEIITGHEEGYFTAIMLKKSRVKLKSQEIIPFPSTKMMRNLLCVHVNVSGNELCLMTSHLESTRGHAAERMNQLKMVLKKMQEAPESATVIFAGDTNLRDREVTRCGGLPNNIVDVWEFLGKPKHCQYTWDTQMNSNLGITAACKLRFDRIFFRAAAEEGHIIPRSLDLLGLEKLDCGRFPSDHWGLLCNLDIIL

Large T antigen = Large T antigen (Simian virus 40, UniProt P03070); type: functional, Betapolyomavirus macacae;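 further: Confirmatory-stage PubChem screen for compounds that inhibit SV40 T antigen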
Large T antigen, sequence (P03070 whole entry, the tested form may be a part): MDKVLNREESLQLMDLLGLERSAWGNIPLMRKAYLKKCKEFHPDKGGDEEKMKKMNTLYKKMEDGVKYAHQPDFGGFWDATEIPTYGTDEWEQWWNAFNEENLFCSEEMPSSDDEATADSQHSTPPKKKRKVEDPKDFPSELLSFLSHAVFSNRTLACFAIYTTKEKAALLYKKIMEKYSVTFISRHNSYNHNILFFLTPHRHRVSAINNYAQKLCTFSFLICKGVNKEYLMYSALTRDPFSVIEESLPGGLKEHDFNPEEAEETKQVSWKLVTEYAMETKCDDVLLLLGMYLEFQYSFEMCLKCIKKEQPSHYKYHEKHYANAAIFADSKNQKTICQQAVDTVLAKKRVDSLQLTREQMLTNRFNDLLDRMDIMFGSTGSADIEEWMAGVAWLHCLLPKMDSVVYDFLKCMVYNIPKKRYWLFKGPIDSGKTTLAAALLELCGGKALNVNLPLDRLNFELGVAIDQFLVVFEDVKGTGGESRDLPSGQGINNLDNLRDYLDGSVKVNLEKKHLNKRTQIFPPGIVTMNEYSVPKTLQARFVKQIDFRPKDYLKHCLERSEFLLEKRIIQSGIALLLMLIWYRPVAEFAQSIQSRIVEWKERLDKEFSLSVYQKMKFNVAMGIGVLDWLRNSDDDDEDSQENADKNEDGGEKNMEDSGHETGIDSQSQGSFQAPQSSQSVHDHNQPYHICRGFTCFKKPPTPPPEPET

Fibrinogen beta chain [8] = target: T2, Fibrinogen beta chain; assay: Fluorescence polarization-based biochemical high throughput dose response assay to identify inhibitors that disrupt the binding of a cyclic peptide (Tn7) to the fibrin proteolytic product D-Dimer and fragment E complex [DD(E )].
[9] = target: T4, Histone-lysine N-methyltransferase NSD2 (Homo sapiens, UniProt O96028); type: biochemical
T4 sequence (O96028 whole entry): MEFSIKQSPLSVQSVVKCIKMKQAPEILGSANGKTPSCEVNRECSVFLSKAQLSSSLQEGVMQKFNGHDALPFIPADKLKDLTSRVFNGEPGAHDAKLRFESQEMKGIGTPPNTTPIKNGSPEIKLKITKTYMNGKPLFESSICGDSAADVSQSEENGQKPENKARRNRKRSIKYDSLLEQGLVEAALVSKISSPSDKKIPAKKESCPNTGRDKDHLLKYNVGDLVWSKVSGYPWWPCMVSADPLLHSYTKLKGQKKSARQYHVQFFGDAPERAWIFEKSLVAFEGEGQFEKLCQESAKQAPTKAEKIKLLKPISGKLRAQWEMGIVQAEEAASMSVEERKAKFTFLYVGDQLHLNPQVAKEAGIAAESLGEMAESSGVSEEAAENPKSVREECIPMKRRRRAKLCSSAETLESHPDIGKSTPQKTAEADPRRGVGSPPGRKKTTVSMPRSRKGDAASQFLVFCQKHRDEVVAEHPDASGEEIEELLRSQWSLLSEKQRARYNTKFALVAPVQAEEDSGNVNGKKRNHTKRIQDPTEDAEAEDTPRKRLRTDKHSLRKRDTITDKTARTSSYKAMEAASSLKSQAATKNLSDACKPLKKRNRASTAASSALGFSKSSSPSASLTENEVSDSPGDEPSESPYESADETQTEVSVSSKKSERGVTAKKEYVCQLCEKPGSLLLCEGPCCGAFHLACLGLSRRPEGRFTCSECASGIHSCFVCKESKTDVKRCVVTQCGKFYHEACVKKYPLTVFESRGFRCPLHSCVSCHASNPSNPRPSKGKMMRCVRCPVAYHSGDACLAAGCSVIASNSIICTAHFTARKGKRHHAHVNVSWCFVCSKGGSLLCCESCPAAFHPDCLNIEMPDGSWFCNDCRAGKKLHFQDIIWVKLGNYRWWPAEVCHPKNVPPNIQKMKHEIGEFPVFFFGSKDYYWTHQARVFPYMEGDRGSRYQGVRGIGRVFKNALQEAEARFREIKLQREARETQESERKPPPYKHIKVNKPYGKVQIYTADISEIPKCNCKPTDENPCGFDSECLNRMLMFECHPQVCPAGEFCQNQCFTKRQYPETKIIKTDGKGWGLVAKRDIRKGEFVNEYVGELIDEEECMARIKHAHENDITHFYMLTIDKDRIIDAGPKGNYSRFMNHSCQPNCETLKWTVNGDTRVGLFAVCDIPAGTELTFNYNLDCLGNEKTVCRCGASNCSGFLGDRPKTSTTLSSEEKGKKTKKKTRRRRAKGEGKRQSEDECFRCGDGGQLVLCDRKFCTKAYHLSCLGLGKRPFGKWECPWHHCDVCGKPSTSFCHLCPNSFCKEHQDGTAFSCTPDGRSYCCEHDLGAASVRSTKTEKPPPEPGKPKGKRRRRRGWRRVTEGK

[10] = target: T5, Zinc finger protein mex-5 (Caenorhabditis elegans, UniProt Q9XUB2); assay: MEX-5/TCR-2 RNA interaction inhibitors, dose response, biochemical, C. elegans, fluorescence polarization (AID 1960)
T5 sequence (Q9XUB2 whole entry): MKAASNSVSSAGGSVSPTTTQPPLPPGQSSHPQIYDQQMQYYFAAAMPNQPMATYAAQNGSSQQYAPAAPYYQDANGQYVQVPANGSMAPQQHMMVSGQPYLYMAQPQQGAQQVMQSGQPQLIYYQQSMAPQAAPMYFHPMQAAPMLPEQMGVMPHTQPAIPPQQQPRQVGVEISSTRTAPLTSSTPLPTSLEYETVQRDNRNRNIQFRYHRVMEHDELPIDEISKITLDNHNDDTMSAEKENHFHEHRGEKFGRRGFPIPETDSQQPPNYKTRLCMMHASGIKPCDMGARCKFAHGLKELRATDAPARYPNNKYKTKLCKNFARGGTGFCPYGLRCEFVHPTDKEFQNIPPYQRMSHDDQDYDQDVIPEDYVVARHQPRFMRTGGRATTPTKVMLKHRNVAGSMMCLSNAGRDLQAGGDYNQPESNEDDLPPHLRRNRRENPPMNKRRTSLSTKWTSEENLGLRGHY

[11] = target: Induced myeloid leukemia cell differentiation protein Mcl-1 (Homo sapiens, UniProt Q07820); type: functional
Induced myeloid leukemia cell differentiation protein Mcl-1, sequence (Q07820 whole entry): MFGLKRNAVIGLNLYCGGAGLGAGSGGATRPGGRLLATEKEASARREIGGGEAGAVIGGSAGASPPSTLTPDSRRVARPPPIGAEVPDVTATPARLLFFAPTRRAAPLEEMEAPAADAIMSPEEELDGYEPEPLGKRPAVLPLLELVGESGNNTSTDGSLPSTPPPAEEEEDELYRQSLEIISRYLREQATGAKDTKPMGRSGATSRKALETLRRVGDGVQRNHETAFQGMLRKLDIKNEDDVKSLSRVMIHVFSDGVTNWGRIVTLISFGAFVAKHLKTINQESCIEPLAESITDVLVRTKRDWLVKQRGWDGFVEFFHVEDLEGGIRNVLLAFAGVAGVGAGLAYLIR

[12] = target: Bifunctional protein GlmU (Mycobacterium tuberculosis, UniProt P9WMN3); assay: Inhibitors of Mycobacterial Glucosamine-1-phosphate acetyl transferase (GlmU). Secondary screen.; design: species or system Mycobacterium tuberculosis H37Rv
Bifunctional protein GlmU, sequence (P9WMN3 whole entry, the tested form may be a part): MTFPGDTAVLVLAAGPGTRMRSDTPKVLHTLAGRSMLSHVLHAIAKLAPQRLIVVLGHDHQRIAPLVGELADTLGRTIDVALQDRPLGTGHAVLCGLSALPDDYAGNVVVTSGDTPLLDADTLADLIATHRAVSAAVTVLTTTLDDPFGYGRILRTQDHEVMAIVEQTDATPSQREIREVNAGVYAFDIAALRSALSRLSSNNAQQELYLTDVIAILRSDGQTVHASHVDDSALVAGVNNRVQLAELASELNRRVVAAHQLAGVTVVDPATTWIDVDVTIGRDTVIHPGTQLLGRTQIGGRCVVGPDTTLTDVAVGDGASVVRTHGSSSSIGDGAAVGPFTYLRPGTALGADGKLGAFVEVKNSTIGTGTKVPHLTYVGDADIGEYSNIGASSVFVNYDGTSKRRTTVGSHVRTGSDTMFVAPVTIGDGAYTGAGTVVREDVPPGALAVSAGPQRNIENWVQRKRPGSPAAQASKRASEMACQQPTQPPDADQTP

[13] = target: T6, RNA-binding protein pos-1 (Caenorhabditis elegans, UniProt G5EF15); assay: inhibitors of POS-1/mex-3 RNA binding, dose response, biochemical, fluorescence polarization (AID 1964);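 further: purified POS-1 fused to maltose binding protein made in E. coli; potency of compounds blocking POS-1 binding to fluorescent RNA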
T6 sequence (G5EF15 whole entry): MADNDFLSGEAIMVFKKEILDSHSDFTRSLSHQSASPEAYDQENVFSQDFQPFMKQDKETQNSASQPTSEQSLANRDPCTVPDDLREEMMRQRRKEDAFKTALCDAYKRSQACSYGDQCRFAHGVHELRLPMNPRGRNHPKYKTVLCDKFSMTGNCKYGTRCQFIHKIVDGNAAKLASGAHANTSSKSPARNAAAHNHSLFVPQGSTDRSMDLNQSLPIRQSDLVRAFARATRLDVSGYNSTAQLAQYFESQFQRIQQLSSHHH

[14] = target: T7, Tyrosine-protein phosphatase non-receptor type 7 (Homo sapiens, UniProt P35236); assay: inhibitors of human HePTP phosphatase, […], biochemical, absorbance, leukemia target (AID 521); type: functional
T7 sequence (P35236 whole entry): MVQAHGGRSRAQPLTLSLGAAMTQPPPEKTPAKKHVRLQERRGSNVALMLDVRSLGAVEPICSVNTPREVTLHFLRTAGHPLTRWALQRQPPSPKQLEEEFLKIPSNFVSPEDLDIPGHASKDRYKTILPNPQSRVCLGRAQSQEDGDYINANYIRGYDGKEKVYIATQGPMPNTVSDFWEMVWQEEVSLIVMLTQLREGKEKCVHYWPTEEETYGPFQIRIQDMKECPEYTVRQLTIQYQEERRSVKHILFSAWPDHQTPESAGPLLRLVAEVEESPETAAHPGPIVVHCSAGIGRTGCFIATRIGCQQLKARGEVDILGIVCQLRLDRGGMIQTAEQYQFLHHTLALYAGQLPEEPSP

ELAV-like protein 1 = ELAV-like protein 1 (Homo sapiens, UniProt Q15717); assay: Identify HuR specific inhibitors.; type: functional
ELAV-like protein 1, sequence (Q15717 whole entry): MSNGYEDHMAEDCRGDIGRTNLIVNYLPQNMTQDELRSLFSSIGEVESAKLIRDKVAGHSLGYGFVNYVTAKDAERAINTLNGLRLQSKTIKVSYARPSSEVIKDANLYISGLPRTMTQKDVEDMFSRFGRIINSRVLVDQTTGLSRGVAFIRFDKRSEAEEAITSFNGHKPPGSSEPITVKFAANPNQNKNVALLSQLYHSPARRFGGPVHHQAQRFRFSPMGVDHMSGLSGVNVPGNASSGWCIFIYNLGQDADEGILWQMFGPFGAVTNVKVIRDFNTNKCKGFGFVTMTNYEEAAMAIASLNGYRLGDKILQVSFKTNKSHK

With `Cc1ccc(OCCn2c(S)nc3ccccc32)c(C(C)C)c1` the EC50 (Streptococcus) was 17.2 µM (active), the AC50 (HeLa) was 37.9 µM (active) and the EC50 [1] was 2.73 µM (active). For the same compound, the AC50 (Cryptococcus neoformans [2]) was 11.2 µM (active), the AC50 (Cryptococcus neoformans [3]) was 20.7 µM (active) and the EC50 (Streptokinase A) was 15.2 µM (active). The AC50 [4] was 10.3 µM (active).

For `O=C(O)CCCNc1cc(N2CCN(C(=O)c3ccco3)CC2)c2noc3c2c1C(=O)c1ccccc1-3`, the EC50 (Streptococcus) was 31.8 µM (active), the IC50 [5] was > 20 µM (inactive) and the IC50 (Fibrinogen beta chain [6]) was 4.96 µM (active). The IC50 [7] was > 128 µM (inactive), the EC50 [1] was 5.52 µM (active) and the IC50 (Large T antigen) was > 100 µM (active). The IC50 (Fibrinogen beta chain [8]) was > 83.3 µM (inactive), the AC50 [9] was 14.8 µM (active) and the EC50 (Streptokinase A) was > 150 µM (not active).

With `O=C1NC(=S)/C(=C\c2ccc(-c3ccccc3Cl)o2)S1` the EC50 [10] was > 300 µM (not active), the EC50 (Streptococcus) was 28.2 µM (active) and the IC50 [11] was 3.31 µM (active). The IC50 [12] was 194 µM (active), the EC50 [1] was 3.42 µM (active) and the EC50 [13] was > 300 µM (not active). For the same compound, the EC50 (Streptokinase A) was 14.7 µM (active).

For `c1cc2c(cc1Cn1cnnn1)OCO2`, the IC50 [14] was > 100 µM (not active).

For `O=C(O)C1=NN(c2cc(Cl)c(S(=O)(=O)O)cc2Cl)C(=O)C1`, the IC50 (ELAV-like protein 1) was 16.7 µM (inactive).
